Read-outs that look alike come from different tables or passages of the source.
Target: T1, EBP-Ig (N-terminal 225 amino acids of the human EPO receptor joined to an Ig heavy chain) (Homo sapiens, UniProt P19235)
T1 construct: Ig heavy chain (fusion partner); made in house; host or cells: NSO cells (secreted into conditioned media)
T1 sequence (P19235 25-250 limits assumed): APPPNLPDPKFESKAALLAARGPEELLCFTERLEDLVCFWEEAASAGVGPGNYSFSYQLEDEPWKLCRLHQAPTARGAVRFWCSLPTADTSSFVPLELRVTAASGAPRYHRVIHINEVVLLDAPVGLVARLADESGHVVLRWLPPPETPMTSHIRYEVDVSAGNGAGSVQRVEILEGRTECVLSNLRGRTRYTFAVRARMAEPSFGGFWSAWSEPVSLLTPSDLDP
Assay: Inhibition of [125I]EPO binding to immobilized EBP-Ig (EPO binding protein-Ig), scintillation Flash plate competition assay
Settings: for % inh @ 50 μM (Inhibition of EPO binding to EBP-Ig): 50 μM test compound, average % inhibition; for IC30 μM (Inhibition of EPO binding to EBP-Ig): 0–500 μM test compound

[1] = read-out: IC50, μM (Inhibition of EPO binding to EBP-Ig), 0.5 nM [125I]EPO, concentration reducing corrected total binding to 50%
[2] = read-out: % inh @ 50 μM (Inhibition of EPO binding to EBP-Ig)
[3] = read-out: EPO/EBP-Ig % inh @ 50 μM, 50 μM compound, Table 10

CC(C)(C)OC(=O)CC[C@H](NC/C=C/c1cccc(Oc2ccc(Cl)c(Cl)c2)c1)C(=O)O [compound 341]
EPO/EBP-Ig % inh @ 50 μM (50 μM compound, Table 19A): 19%

C[C@H](O)[C@H](NC/C=C/c1ccc(C(F)(F)F)cc1)C(=O)O.O=C(O)C(F)(F)F [compound 358]
EPO/EBP-Ig % inh @ 50 μM (50 μM compound): 0%

COC(=O)C(CCCCNC(=O)OC(C)(C)C)N(C/C=C/c1cccc([N+](=O)[O-])c1)C/C=C/c1cccc([N+](=O)[O-])c1 (stereo not shown) [compound 183]
EPO/EBP-Ig % inh @ 50 μM (50 μM compound, Table 9): 36%
% inh @ 50 μM (Inhibition of EPO binding to EBP-Ig) (0.5 nM [125I]EPO): 36%

O=C(O)CCC(C(=O)NCCOCCOCCNC(=O)C(CCC(=O)O)N(Cc1cccc(NC(=O)c2ccco2)c1)Cc1cccc(Oc2ccccc2)c1)N(Cc1cccc(NC(=O)c2ccco2)c1)Cc1cccc(Oc2ccccc2)c1 (stereo not shown) [compound 248]
IC30 μM (Inhibition of EPO binding to EBP-Ig) (0.5 nM [125I]EPO): 7 µM
% inh @ 50 μM (Inhibition of EPO binding to EBP-Ig) (0.5 nM [125I]EPO): 56%
EPO/EBP-Ig % inh @ 50 μM (Table 11, 50 μM): 56%
IC50 [1]: 20 µM

O=C(O)CC(C(=O)O)N(C/C=C/c1cccc(Oc2ccccc2)c1)Cc1cccc(Oc2ccccc2)c1 (stereo not shown) [compound 77]
IC50: 40 µM
IC30 μM (Inhibition of EPO binding to EBP-Ig) (0.5 nM [125I]EPO): 30 µM
inhibition at 50 µM [2]: 52%
inhibition at 50 µM (read-out: EPO/EBP-Ig % inh @ 50 μM, Table 5, 50 μM): 52%

COC(=O)[C@H](Cc1c[nH]c2ccccc12)NC/C=C/c1ccccc1 [compound 364]
EPO/EBP-Ig % inh @ 50 μM (50 μM compound): 16%

O=C(O)C(CO)N(CC=Cc1ccc(-c2ccccc2)cc1)CC=Cc1ccc(-c2ccccc2)cc1 (stereo not shown) [compound 305]
IC30 μM (Inhibition of EPO binding to EBP-Ig) (0.5 nM [125I]EPO): 35 µM
inhibition at 50 µM [2]: 48%
inhibition at 50 µM (read-out: EPO/EBP-Ig % inh @ 50 μM, 50 μM compound, Table 16A): 48%
IC50 [1]: 225 µM

COC(=O)[C@H](COC(C)(C)C)N(C/C=C/c1cccc(Oc2ccc(Cl)c(Cl)c2)c1)C/C=C/c1cccc(Oc2ccc(Cl)c(Cl)c2)c1 [compound 293]
EPO/EBP-Ig % inh @ 50 μM (50 μM compound, Table 16A): 14%

CC(C)(C)OC[C@@H](C(=O)O)N(C/C=C/c1cccc(Oc2ccc(C(C)(C)C)cc2)c1)C/C=C/c1cccc(Oc2ccc(C(C)(C)C)cc2)c1 [compound 304]
EPO/EBP-Ig % inh @ 50 μM (50 μM compound, Table 16A): 19%

CC(C)(C)OC(=O)CC(C(=O)NCCOCCOCCNC(=O)C(CC(=O)OC(C)(C)C)N(C/C=C/c1cccc(Oc2ccc(C(C)(C)C)cc2)c1)C/C=C/c1cccc(Oc2ccc(C(C)(C)C)cc2)c1)N(C/C=C/c1cccc(Oc2ccc(C(C)(C)C)cc2)c1)C/C=C/c1cccc(Oc2ccc(C(C)(C)C)cc2)c1 (stereo not shown) [compound 256]
EPO/EBP-Ig % inh @ 50 μM (50 μM compound, Table 12): 10%

COC(=O)C(CCCCN)N(Cc1ccc(OCc2ccccc2)cc1)Cc1ccc(OCc2ccccc2)cc1 (stereo not shown) [compound 110]
IC30 μM (Inhibition of EPO binding to EBP-Ig) (0.5 nM [125I]EPO): 6 µM
inhibition at 50 µM [2]: 54%
inhibition at 50 µM (read-out: EPO/EBP-Ig % inh @ 50 μM, Table 7, 50 μM): 54%

CC(C)(C)OC[C@H](NC/C=C/c1cccc(Oc2cccc(C(F)(F)F)c2)c1)C(=O)O [compound 357]
EPO/EBP-Ig % inh @ 50 μM (50 μM compound, Table 20A): 12%

O=C(O)CCC(C(=O)O)N(CC=Cc1cccs1)CC=Cc1cccs1 (stereo not shown) [compound 52]
EPO/EBP-Ig % inh @ 50 μM (Table 3, 50 μM): 21%

COC(=O)[C@H](CCCCNC(=O)OCc1ccccc1)NC/C=C/c1ccccc1 [compound 318]
EPO/EBP-Ig % inh @ 50 μM (50 μM compound, Table 18A): 14%

O=C(O)CC(C(=O)O)N(Cc1cccc(NCc2ccccc2)c1)Cc1cccc(Oc2ccccc2)c1 (stereo not shown) [compound 63]
EPO/EBP-Ig % inh @ 50 μM (Table 4, 50 μM): 20%

COC(=O)C(CCC(=O)O)N(C/C=C/c1cccs1)C/C=C/c1cccs1 (stereo not shown) [compound 61]
EPO/EBP-Ig % inh @ 50 μM (Table 3, 50 μM): 14%

COc1ccc(CCNC(=O)C(CCCCN)N(CC=Cc2ccccc2)CC=Cc2ccccc2)cc1 (stereo not shown) [compound 211]
IC30 μM (Inhibition of EPO binding to EBP-Ig) (0.5 nM [125I]EPO): 20 µM
inhibition at 50 µM [2]: 62%
inhibition at 50 µM [3]: 62%
IC50 [1]: 65 µM

CCCCNC(=O)C(CCCCN)N(C/C=C/c1ccccc1)C/C=C/c1ccccc1 (stereo not shown) [compound 205]
EPO/EBP-Ig % inh @ 50 μM (50 μM compound, Table 10): 26%

O=C(O)CC(C(=O)O)N(Cc1cccc(NCc2ccccc2F)c1)Cc1cccc(Oc2ccccc2)c1 (stereo not shown) [compound 68]
EPO/EBP-Ig % inh @ 50 μM (Table 4, 50 μM): −13%

O=C(NCCCC[C@H](NC/C=C/c1ccc(C(F)(F)F)cc1)C(=O)O)OCc1ccccc1Cl.O=C(O)C(F)(F)F [compound 313]
EPO/EBP-Ig % inh @ 50 μM (50 μM compound, Table 18A): 28%

CCOC(=O)c1ccc(NC(=O)NCCCCC(C(=O)NCCc2ccc(OC)cc2)N(C/C=C/c2ccccc2)C/C=C/c2ccccc2)cc1 (stereo not shown) [compound 231]
EPO/EBP-Ig % inh @ 50 μM (50 μM compound, Table 10): 36%
% inh @ 50 μM (Inhibition of EPO binding to EBP-Ig) (0.5 nM [125I]EPO): 36%

O=C(O)C(F)(F)F.O=C(O)[C@H](Cc1ccc(O)cc1)NC/C=C/c1ccc(C(F)(F)F)cc1 [compound 362]
EPO/EBP-Ig % inh @ 50 μM (50 μM compound): 0%

O=C(O)CCC(=O)NCCCCC(C(=O)NCCCOCCCCOCCCNC(=O)C(CCCCNC(=O)CCC(=O)O)N(Cc1ccc(OCc2ccccc2)cc1)Cc1ccc(OCc2ccccc2)cc1)N(Cc1ccc(OCc2ccccc2)cc1)Cc1ccc(OCc2ccccc2)cc1 (stereo not shown) [compound 265]
IC30 μM (Inhibition of EPO binding to EBP-Ig) (0.5 nM [125I]EPO): 1 µM
EPO/EBP-Ig % inh @ 50 μM (50 μM compound, Table 13): 65%
% inh @ 50 μM (Inhibition of EPO binding to EBP-Ig) (0.5 nM [125I]EPO): 65%
IC50 [1]: 6 µM

O=C(O)CN(C/C=C/c1cccc(Oc2ccccc2)c1)C/C=C/c1cccc(Oc2ccccc2)c1 [compound 312]
IC30 μM (Inhibition of EPO binding to EBP-Ig) (0.5 nM [125I]EPO): 10 µM
inhibition at 50 µM [2]: 45%
inhibition at 50 µM (read-out: EPO/EBP-Ig % inh @ 50 μM, 50 μM compound, Table 17A): 45%
IC50 [1]: 85 µM

CC(=O)O.COC(=O)[C@H](CO)N(C/C=C/c1cccc(Oc2ccc(Cl)c(Cl)c2)c1)C/C=C/c1cccc(Oc2ccc(Cl)c(Cl)c2)c1 [compound 296]
EPO/EBP-Ig % inh @ 50 μM (50 μM compound, Table 16A): 0%

O=C(O)CCC(C(=O)O)N(C/C=C/c1ccc(NC(=O)C(F)(F)F)cc1)Cc1ccc(OCc2ccccc2)cc1 (stereo not shown) [compound 85]
EPO/EBP-Ig % inh @ 50 μM (Table 5, 50 μM): 20%

NCCCCC(C(=O)NCCc1ccccc1)N(CC=Cc1ccccc1)CC=Cc1ccccc1 (stereo not shown) [compound 227]
IC30 μM (Inhibition of EPO binding to EBP-Ig) (0.5 nM [125I]EPO): 20 µM
inhibition at 50 µM [2]: 48%
inhibition at 50 µM [3]: 48%
IC50 [1]: 50 µM

CC(C)(C)c1ccc(Oc2cccc(/C=C/CN(C/C=C/c3cccc(Oc4ccc(C(C)(C)C)cc4)c3)C(CCC(=O)O)C(=O)O)c2)cc1 (stereo not shown) [compound 104]
IC30 μM (Inhibition of EPO binding to EBP-Ig) (0.5 nM [125I]EPO): 10 µM
% inh @ 50 μM (Inhibition of EPO binding to EBP-Ig) (0.5 nM [125I]EPO): 78%
EPO/EBP-Ig % inh @ 50 μM (Table 6, 50 μM): 78%
IC50 [1]: 30 µM

NCCCCC(C(=O)NCc1ccc(OCC=Cc2ccccc2)cc1)N(CC=Cc1ccccc1)CC=Cc1ccccc1 (stereo not shown) [compound 220]
IC30 μM (Inhibition of EPO binding to EBP-Ig) (0.5 nM [125I]EPO): 30 µM
EPO/EBP-Ig % inh @ 50 μM (50 μM compound, Table 10): 45%
% inh @ 50 μM (Inhibition of EPO binding to EBP-Ig) (0.5 nM [125I]EPO): 45%
IC50 [1]: 50 µM

COC(=O)C(CCCCNC(=O)OC(C)(C)C)N(C/C=C/c1ccc([N+](=O)[O-])cc1)C/C=C/c1ccc([N+](=O)[O-])cc1 (stereo not shown) [compound 178]
EPO/EBP-Ig % inh @ 50 μM (50 μM compound, Table 9): 36%
% inh @ 50 μM (Inhibition of EPO binding to EBP-Ig) (0.5 nM [125I]EPO): 36%

CC(C)(C)OC(=O)CC[C@H](NC/C=C/c1cccc(Oc2cccc(C(F)(F)F)c2)c1)C(=O)OC(C)(C)C [compound 338]
EPO/EBP-Ig % inh @ 50 μM (50 μM compound, Table 19A): 23%

CC(C)(C)OC(=O)NCCCCC(C(=O)NCCCOCCCCOCCCNC(=O)C(CCCCNC(=O)OC(C)(C)C)N(Cc1ccc(OCc2ccccc2)cc1)Cc1ccc(OCc2ccccc2)cc1)N(Cc1ccc(OCc2ccccc2)cc1)Cc1ccc(OCc2ccccc2)cc1 (stereo not shown) [compound 258]
EPO/EBP-Ig % inh @ 50 μM (50 μM compound, Table 13): −24%

COC(=O)C(CCCCNC(=O)OC(C)(C)C)N(Cc1cccc(OCc2ccccc2)c1)Cc1cccc(OCc2ccccc2)c1 (stereo not shown) [compound 109]
EPO/EBP-Ig % inh @ 50 μM (Table 7, 50 μM): 7%

CCCCC(=O)Nc1cccc(CN(Cc2cccc(Oc3ccccc3)c2)C(CCC(=O)O)C(=O)NCCOCCOCCNC(=O)C(CCC(=O)O)N(Cc2cccc(NC(=O)CCCC)c2)Cc2cccc(Oc3ccccc3)c2)c1 (stereo not shown) [cpd 247, [N-(3-Phenoxybenzyl)-N-(3-(pentanoylamino)benzyl)-Glu-NHCH2CH2OCH2]2]
IC50: 18 µM
IC30 μM (Inhibition of EPO binding to EBP-Ig) (0.5 nM [125I]EPO): 7 µM
inhibition at 50 µM [2]: 47%
inhibition at 50 µM (read-out: EPO/EBP-Ig % inh @ 50 μM, Table 11, 50 μM): 47%

COC(=O)c1cccc(C=CCNC(Cc2ccc(OC)cc2)C(=O)OC)c1 (stereo not shown) [compound 363]
IC30 μM (Inhibition of EPO binding to EBP-Ig) (0.5 nM [125I]EPO): 35 µM
inhibition at 50 µM [2]: 33%
inhibition at 50 µM (read-out: EPO/EBP-Ig % inh @ 50 μM, 50 μM compound): 33%
IC50 [1]: 220 µM

COC(=O)C(CCC(=O)O)N(C/C=C/c1ccccc1)C/C=C/c1ccccc1 (stereo not shown) [compound 92]
EPO/EBP-Ig % inh @ 50 μM (Table 6, 50 μM): 20%

COC(=O)[C@H](CCCCNC(=O)OCc1ccccc1)NC/C=C/c1ccc(OC)cc1 [compound 320]
EPO/EBP-Ig % inh @ 50 μM (50 μM compound, Table 18A): 17%

COC(=O)[C@H](COC(C)(C)C)NC/C=C/c1cccc(Oc2cccc(C(F)(F)F)c2)c1 [compound 355]
EPO/EBP-Ig % inh @ 50 μM (50 μM compound, Table 20A): 22%

NC(=O)C[C@H](NC/C=C/c1ccc(C(F)(F)F)cc1)C(=O)O.O=C(O)C(F)(F)F [compound 367]
EPO/EBP-Ig % inh @ 50 μM (50 μM compound): 0%

O=C(O)CCCC(=O)NCCCCC(C(=O)NCCCOCCCCOCCCNC(=O)C(CCCCNC(=O)CCCC(=O)O)N(Cc1ccc(OCc2ccccc2)cc1)Cc1ccc(OCc2ccccc2)cc1)N(Cc1ccc(OCc2ccccc2)cc1)Cc1ccc(OCc2ccccc2)cc1 (stereo not shown) [compound 266]
IC30 μM (Inhibition of EPO binding to EBP-Ig) (0.5 nM [125I]EPO): 1 µM
EPO/EBP-Ig % inh @ 50 μM (50 μM compound, Table 13): 82%
% inh @ 50 μM (Inhibition of EPO binding to EBP-Ig) (0.5 nM [125I]EPO): 82%
IC50 [1]: 4 µM

COC(=O)C(COC(C)(C)C)NCC=Cc1cccc(Oc2ccccc2)c1 (stereo not shown) [cpd 352, N-(3-phenoxycinnamyl)Ser(t-Bu)-OMe]
EPO/EBP-Ig % inh @ 50 μM (50 μM compound, Table 20A): 8%
